Experimental data as given in US20260224692A1, “T CELL-DIRECTED ANTI-AGING AND ANTI-CANCER VACCINES AGAINST COMMENSAL CYTOMEGALOVIRUS” (The General Hospital Corporation, priority 2023, published 2026).

Tests used:
[1] = system: skin CD4+ T cells; assay: Flow cytometry analysis of perforin and CD107a expression on CD4+ T cells exposed to SCFA; format: cell-based, human; details: 5 mM SCFA, 24 h
Procedure: (§1) FIGS. 15A-15B. Butyrate and pentanoate boost CD4 CTL-mediated clearance of senescent cells. (A) The frequency of cleaved caspase-3^+ senescent fibroblasts after co-culture for 6 h with skin T cells, which are preincubated with each 5 mM SCFAs for 2 days, using a skin T cell to fibroblast ratio of 50:1. All data are expressed as the mean±SD. n=3 individuals. (B) The effect of each SCFA (5 mM) treatment on the cytotoxicity of CD4^+ T cells. Flow cytometry analysis of perforin and CD107a expression on CD4^+ T cells exposed to each SCFA for 24 h. n=2 individuals. All data are expressed as the mean±SD.
Cells were washed once with PBS, including 5% newborn calf serum (Thermo Fisher Scientific, 26010074) and 0.01% sodium azide (Sigma-Aldrich, S2002-100G), and stained with antibodies (Tables 3B and 3B) on ice for 30 min followed by secondary antibody if needed (Table 3A). Following the surface marker staining, cells were fixed and permeabilized for intracellular staining using True-Nuclear Transcription Factor Buffer Set (BioLegend, 424401). Permeabilized cells were stained with antibodies (Table 3A) overnight at 4° C. […] Data were analyzed using FlowJo software (BD Life Sciences, Franklin Lakes, NJ). Relative fluorescence intensity was calculated by subtracting the median fluorescence intensity of isotype control from the median fluorescence intensity of stained samples.

[2] = system: senescent fibroblasts; assay: SCFA-mediated CD4+ T cell stimulation assay: T cell-mediated cytotoxicity against senescent fibroblasts; format: cell-based, human; details: T cells exposed to 5 mM SCFA for 2 days; 6 h co-culture; T cell to fibroblast ratio 50:1
Procedure: as §1, with “Butyrate and pentanoate boost CD4 CTL-mediated clearance of senescent cells.” left out
T cells were seeded at a density of 2.5×10^5 cells into 60 mm dish, and were added to each 5 mM SCFAs, including butylate (EMD Millipore), pentanoate (Ambeed Inc), or propionate (Sigma-Aldrich) with 20 ng/ml human IL-2 recombinant and 20 ng/ml human IL-15 recombinant for 2 days. Following 2 days of co-incubation, T cells were subsequently added to each senescent fibroblasts-placed wells and were cultured in T cell medium with 20 ng/ml human IL-2 recombinant and 20 ng/ml human IL-15 recombinant in 24 well plate (Ratios of 50:1 T cells-to fibroblasts respectively). Following 6 hr of co-incubation, remaining fibroblasts were stained with vimentin and cleaved caspase-3 to examine the frequency of T cell-mediated cytotoxicity against senescent fibroblasts. […]

[3] = system: human skin CD4 CTLs; assay: Trans-well migration assay; format: cell-based; details: recombinant human CXCL9 50 nM (585 ng/mL) in bottom well, 60 min, vs PBS carrier
Source text: FIGS. 6A-6E. CXCL9 promotes the migration of human skin-resident CD4 CTLs. […] The percent cells in each gate are shown on the flow-cytometry plots. Zombie fixable viability dye (Viability) marks dead cells. (B) Representative flow-cytometry plots of CXCR3 expression on CD4^+ and CD8^+ T cells in the human skin. Numbers on the flow-cytometry plots represent the percent cells within each gate. (C) The experimental scheme for trans-well migration assay using the immune cells isolated from the human skin. (D and E) The effect of CXCL9 recombinant protein (585 ng/mL) treatment on the migration of human skin CD4 CTLs (D) and CD8^+ T cells (E). Skin samples from two independent donors were used to isolate skin-resident immune cells (female skin donors). Bar graphs show mean±SD, Mann-Whitney U test.
Skin-isolated cells were seeded at a density of 1.5×10^4 cells/well into the top inserts of the 24-well trans-well plate (Corning, 07-200-149). The pore size is 5 μm. RPMI containing recombinant human CXCL9 (PeproTech, 300-26) or PBS (carrier only) at the concentration of 50 nM was added into the bottom well. Skin-isolated cells were incubated for 60 min. Then, cells were counted and stained as described in the flow cytometry section.

Row | Molecule | expression of perforin+ and CD107a+ on CD4+ T cells (cytotoxicity capacity) [1] | apoptosis (cleaved caspase-3+) in senescent fibroblasts by SCFA-exposed skin T cells [2] | migration of human skin CD4 CTLs [3]
1 | CCCC(=O)O [butyrate] | increase | highly induced apoptosis | 
2 | CCCCC(=O)O [pentanoate] | increase | highly induced apoptosis | 
3 | CXCL9: recombinant human CXCL9 chemokine (PeproTech, 300-26), ligand of CXCR3 (protein, UniProt Q07325 23-125, looked up) C-X-C motif chemokine 9: TPVVRKGRCSCISTNQGTIHLQSLKDLKQFAPSPSCEKIEIIATLKNGVQTCLNPDSADVKELIKKWEKQVSQKKKQKNGKKHQKKKVLKVRKSQRSRQKKTT |  |  | significantly induced the migration of CD4 CTLs
